{"source": "paper PMC7069976", "about": "“Improved secretion of glycoproteins using an N-glycan-restricted passport sequence tag recognized by cargo receptor” (Nature Communications, 2020)", "key": {"HCT116 cells": {"system": "HCT116 cells", "assay": "α1-antitrypsin (AAT) secretion level (ELISA) from HCT116 cells", "assay_type": "cell-based", "source_text": "(§1) For expression of the FVIII and FV full-length and deletion mutant proteins in mammalian cells, the codon-optimized FVIII and FV genes were inserted into the p3XFLAG-CMV-14 Expression Vector and p3XFLAG-CMV-9 Expression Vector, respectively (Sigma-Aldrich, St. Louis, MO). For the expression of the wild-type and mutated AAT, EPO, and sFγRIIIa in mammalian cells, the corresponding genes (purchased from FASMAC Co., Ltd., Atsuki, Japan) were inserted into the p3XFLAG-CMV-9 Expression Vector (Sigma-Aldrich).\nHCT116 and its mutated cells as well as HEK293T were maintained in Dulbecco’s modified Eagle’s medium (DMEM) supplemented with 10% fetal bovine serum in 5% CO2 at 37 °C. For complementary DNA (cDNA) transfection, cells were grown overnight and transfected using Polyethylenimine “Max” (Polysciences Inc.) as described previously. Expi293F cells (Thermo Fisher Scientific, Waltham, MA) were maintained in Expi293 Expression Medium (Thermo Fisher Scientific) in 5% CO2 at 37 °C on an orbital shaker platform rotating at 125 r.p.m. For cDNA transfection, cells were transfected with the ExpiFectamine 293 Transfection Kit (Thermo Fisher Scientific Inc.). Protein expression was performed in serum-free medium.\n(§2) The secreted levels of FVIII and FV antigens in the culture medium were determined with an sandwich enzyme-linked immunosorbent assay (ELISA) method using the VisuLize FVIII Antigen Kit (Affinity Biologicals Inc., Ancaster, ON) and the Asssay Max™ Human Factor V ELISA Kit (ASSAYPRO, MO), respectively. The secreted levels of AAT and EPO antigens in the culture medium were determined with an ELASA method using the anti-AAT antibody (Agilent, Santa Clara, CA) and anti-Flag M2 antibody (Sigma-Aldrich), respectively."}, "MCFD2 [1]": {"target": "T1, MCFD2 (Homo sapiens, UniProt Q8NI22)", "T1 construct": "The preparation of ERGIC-53^CRD, MCFD2, and their complexes was performed as previously described; made in house", "T1 sequence (Q8NI22 27-146)": "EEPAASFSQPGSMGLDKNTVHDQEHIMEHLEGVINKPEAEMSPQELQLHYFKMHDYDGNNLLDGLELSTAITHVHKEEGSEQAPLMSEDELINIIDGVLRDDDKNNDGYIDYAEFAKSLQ", "assay": "NMR chemical shift perturbation of [15N]MCFD2 upon peptide addition", "assay_type": "binding"}, "MCFD2 [2]": {"target": "T1, MCFD2", "assay": "NMR titration (peak attenuation) of [15N]FVIII-derived peptide with MCFD2 only", "assay_type": "binding", "settings": "absence of ERGIC-53CRD, 0.1 mM [15N]FVIII fragment, 0.02–0.3 mM MCFD2, 20 mM MES pH 6.0, 10 mM CaCl2, 150 mM NaCl, 10% D2O, read-out: dissociation constant", "procedure": "(§3) The preparation of ERGIC-53^CRD, MCFD2, and their complexes was performed as previously described[16],[18]. FVIII fragment (Asn776–Asp838) was prepared using the protocol described previously. The DNA fragment encoding residues Asn776–Asp838 of FVIII was cloned into the ubiquitin (Ub)-fused pET28a plasmid. The peptide fragment was expressed as a Ub-fused protein in Luria–Bertani broth or M9 minimal medium supplemented with [^15N]NH4Cl and/or [^13C]glucose for NMR experiments. The Ub-fused FVIII peptide was purified with immobilized Ni^2+-affinity chromatography and then digested with Ub carboxyl-terminal hydrolase (YUH1). The resultant peptide was purified by reversed-phase chromatography.\n(§4) NMR measurements were performed using AVANCE 800 and AVANCE 500 spectrometers each equipped with a 5-mm triple-resonance cryogenic probe (Bruker BioSpin, Fallanden, Switzerland). The NMR data were processed and analyzed using TopSpin (Bruker BioSpin) and SPARKY software.\n(§5) The chemical shifts of the FVIII fragment (Asn776–Asp838) were assigned by a standard protocol[18],[25]. To obtain the dissociation constant based on NMR peak attenuation, 0.1 mM [^15N]FVIII fragment was titrated with 0.02–0.3 mM of MCFD2/ERGIC-53^CRD or MCFD2 only in 20 mM 2-(N-morpholino) ethanesulfonic acid (MES; pH 6.0) containing 10 mM CaCl2, 150 mM NaCl, and 10% (v/v) D2O. […]"}, "[3]": {"target": "T2, MCFD2/ERGIC-53^CRD complex (Homo sapiens, UniProt P49257+Q8NI22)", "T2 construct": "made in house", "T2 sequence (Q8NI22 27-146)": "T1 sequence (Q8NI22 27-146)", "T2 sequence (P49257 44-267 partner limits assumed)": "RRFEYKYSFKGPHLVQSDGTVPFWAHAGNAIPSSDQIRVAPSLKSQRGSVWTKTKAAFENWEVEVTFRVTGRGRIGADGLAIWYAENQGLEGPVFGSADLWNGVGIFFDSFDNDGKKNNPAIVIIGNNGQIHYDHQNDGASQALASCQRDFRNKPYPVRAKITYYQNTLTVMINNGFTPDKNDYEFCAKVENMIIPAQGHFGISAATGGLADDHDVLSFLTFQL", "assay": "NMR titration (peak attenuation) of [15N]FVIII-derived peptide with MCFD2/ERGIC-53CRD", "assay_type": "binding", "procedure": "as §3, §4, §5"}, "COS-7 cells": {"system": "COS-7 cells", "assay": "FV secretion level (ELISA) from COS-7 cells", "assay_type": "cell-based", "source_text": "as §1, §2"}, "MCFD2 [4]": {"target": "T1, MCFD2", "settings": "Arg44–His56; cited from earlier work"}}}
{"substance": "AAT: human α1-antitrypsin, three N-glycosylation sites", "values": [{"measurement": "AAT secretion level, average", "setting": "HCT116 cells; HCT116, Average, n = 3 independent transfections, AAT = 1", "result": 1}, {"measurement": "AAT secretion level", "setting": "HCT116 cells; HCT116, replicate 1", "result": 1.145}, {"measurement": "AAT secretion level", "setting": "HCT116 cells; HCT116, replicate 2", "result": 1.033}, {"measurement": "AAT secretion level", "setting": "HCT116 cells; HCT116, replicate 3", "result": 0.8224}]}
{"substance": "ATZ-mutant: ATZ-mutant of alpha 1-antitrypsin, with or without C-terminal SDLLMLLRQS motif", "values": [{"measurement": "ATZ-mutant secretion with vs without C-terminal motif", "setting": "HCT116 cells; ATZ-mutant of alpha1-antitrypsin, HCT116, ELISA, n = 3", "result": "did not observe significant difference"}]}
{"substance": "DPPSDLLLLKQSNSSKILVGRWHLASEK", "values": [{"measurement": "interaction of FV-derived peptide with MCFD2", "setting": "MCFD2 [1]; two molar equivalents, with vs without ERGIC-53CRD-derived peptide, pH 6.0, 2% DMSO-d6, 303 K", "result": "interacts with the EF-hand helices of MCFD2 in an ERGIC-53^CRD-dependent manner"}]}
{"substance": "DPPSDLLLLKQSNSSKILVGRWHLASEK [FVIII-derived peptide, FVIII fragment residues Asn776–Asp838, expressed as Ub-fused protein and cleaved with YUH1]", "values": [{"measurement": "chemical shift changes of MCFD2 induced by FVIII-derived peptide", "setting": "MCFD2 [1]; two molar equivalents of peptide, with vs without five equivalents ERGIC-53CRD-derived tridecapeptide, pH 6.0, 303 K", "result": "markedly enhanced spectral changes in the presence of the ERGIC-53-derived tridecapeptide"}, {"measurement": "Kd", "setting": "MCFD2 [2]", "result": 120, "unit": "µM"}, {"measurement": "attenuation of NMR peak intensities upon addition of MCFD2/ERGIC-53CRD", "setting": "[3]; 15N-labeled peptide 0.1 mM, one molar equivalent, pH 6.0, 283 K", "result": "significant attenuation in peak intensities for the region spanning residues 806–819"}, {"measurement": "Kd", "setting": "[3]; NMR peak attenuation, 0.1 mM [15N]FVIII fragment titrated with 0.02–0.3 mM MCFD2/ERGIC-53CRD, 20 mM MES pH 6.0, 10 mM CaCl2, 150 mM NaCl, 10% D2O, read-out: dissociation constant", "result": 11, "unit": "µM"}]}
{"substance": "FV: recombinant wild-type factor V", "values": [{"measurement": "FV secretion level (Supplementary Fig. 7B), average", "setting": "COS-7 cells; Average, n = 3, FV = 1", "result": 1}, {"measurement": "FV secretion level (Supplementary Fig. 7B)", "setting": "COS-7 cells; replicate 1", "result": 1.05}, {"measurement": "FV secretion level (Supplementary Fig. 7B)", "setting": "COS-7 cells; replicate 2", "result": 0.9799}, {"measurement": "FV secretion level (Supplementary Fig. 7B)", "setting": "COS-7 cells; replicate 3", "result": 0.9702}]}
{"substance": "RRFEYKYSFKGPH", "values": [{"measurement": "chemical shift changes of MCFD2 induced by ERGIC-53CRD-derived tridecapeptide", "setting": "MCFD2 [4]", "result": "induces widespread chemical shift changes of MCFD2"}]}
